Like-named read-outs stand apart in the source and are kept apart here.
What was measured:
[1] = target: M. tuberculosis ribonucleotide reductase R1 (Mycobacterium tuberculosis, UniProt P9WH75); assay type: binding; settings: 5 mM ATP
[2] = target: T1, M. tuberculosis ribonucleotide reductase (Mycobacterium tuberculosis, UniProt P9WH75); assay type: biochemical
Target sequence in this assay (P9WH75 whole entry, looked up): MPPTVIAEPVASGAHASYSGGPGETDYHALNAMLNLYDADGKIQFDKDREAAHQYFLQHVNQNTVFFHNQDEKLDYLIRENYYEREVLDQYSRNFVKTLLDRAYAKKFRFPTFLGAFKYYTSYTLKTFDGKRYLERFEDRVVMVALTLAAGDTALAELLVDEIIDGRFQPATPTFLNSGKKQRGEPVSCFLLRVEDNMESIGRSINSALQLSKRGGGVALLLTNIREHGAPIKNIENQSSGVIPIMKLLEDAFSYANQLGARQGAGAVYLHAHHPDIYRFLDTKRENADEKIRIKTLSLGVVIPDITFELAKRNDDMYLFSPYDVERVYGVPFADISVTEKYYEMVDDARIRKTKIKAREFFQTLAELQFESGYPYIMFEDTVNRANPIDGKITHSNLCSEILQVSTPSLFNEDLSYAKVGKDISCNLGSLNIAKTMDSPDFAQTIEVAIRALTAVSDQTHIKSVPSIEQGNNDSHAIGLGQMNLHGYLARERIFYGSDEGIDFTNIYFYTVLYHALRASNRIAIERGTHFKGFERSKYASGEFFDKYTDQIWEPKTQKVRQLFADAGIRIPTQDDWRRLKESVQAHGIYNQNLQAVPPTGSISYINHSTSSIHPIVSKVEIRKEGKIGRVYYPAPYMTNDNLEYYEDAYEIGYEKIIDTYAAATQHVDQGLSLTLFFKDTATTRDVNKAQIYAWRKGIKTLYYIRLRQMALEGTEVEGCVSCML

[3] = target: T1, M. tuberculosis ribonucleotide reductase; assay: biochemical; assay type: biochemical; settings: for Maximal stimulated ribonucleotide reduction (Example 2): Example 2, written in present tense; for Maximal stimulated CDP reduction: equimolar R1 and R2, DTT as reductant
Target sequence in this assay (P9WH75 3-725): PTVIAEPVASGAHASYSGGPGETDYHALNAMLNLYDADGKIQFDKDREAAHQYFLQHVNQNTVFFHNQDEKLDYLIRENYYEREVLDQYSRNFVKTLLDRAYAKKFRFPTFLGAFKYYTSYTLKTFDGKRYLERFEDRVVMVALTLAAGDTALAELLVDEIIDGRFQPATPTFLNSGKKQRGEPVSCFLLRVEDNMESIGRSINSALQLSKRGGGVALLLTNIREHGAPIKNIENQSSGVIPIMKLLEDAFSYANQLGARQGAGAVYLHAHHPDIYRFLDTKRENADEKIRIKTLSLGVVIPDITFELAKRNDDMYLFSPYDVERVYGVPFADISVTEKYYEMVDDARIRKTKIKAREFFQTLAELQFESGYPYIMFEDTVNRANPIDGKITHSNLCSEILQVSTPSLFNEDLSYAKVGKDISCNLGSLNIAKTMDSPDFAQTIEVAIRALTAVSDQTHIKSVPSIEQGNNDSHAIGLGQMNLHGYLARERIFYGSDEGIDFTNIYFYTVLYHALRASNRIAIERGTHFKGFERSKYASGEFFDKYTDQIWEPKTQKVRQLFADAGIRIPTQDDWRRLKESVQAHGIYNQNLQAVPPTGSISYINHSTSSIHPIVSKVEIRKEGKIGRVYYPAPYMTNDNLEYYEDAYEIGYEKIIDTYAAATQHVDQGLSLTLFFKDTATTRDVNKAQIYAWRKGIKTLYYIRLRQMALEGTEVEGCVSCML

[4] = target: M. tuberculosis topoisomerase I (Mycobacterium tuberculosis, UniProt P9WG49); assay type: biochemical; settings: 150 ng enzyme, 1.0 mM MgCl2
M. tuberculosis topoisomerase I, sequence (P9WG49 2-896, added parts left off): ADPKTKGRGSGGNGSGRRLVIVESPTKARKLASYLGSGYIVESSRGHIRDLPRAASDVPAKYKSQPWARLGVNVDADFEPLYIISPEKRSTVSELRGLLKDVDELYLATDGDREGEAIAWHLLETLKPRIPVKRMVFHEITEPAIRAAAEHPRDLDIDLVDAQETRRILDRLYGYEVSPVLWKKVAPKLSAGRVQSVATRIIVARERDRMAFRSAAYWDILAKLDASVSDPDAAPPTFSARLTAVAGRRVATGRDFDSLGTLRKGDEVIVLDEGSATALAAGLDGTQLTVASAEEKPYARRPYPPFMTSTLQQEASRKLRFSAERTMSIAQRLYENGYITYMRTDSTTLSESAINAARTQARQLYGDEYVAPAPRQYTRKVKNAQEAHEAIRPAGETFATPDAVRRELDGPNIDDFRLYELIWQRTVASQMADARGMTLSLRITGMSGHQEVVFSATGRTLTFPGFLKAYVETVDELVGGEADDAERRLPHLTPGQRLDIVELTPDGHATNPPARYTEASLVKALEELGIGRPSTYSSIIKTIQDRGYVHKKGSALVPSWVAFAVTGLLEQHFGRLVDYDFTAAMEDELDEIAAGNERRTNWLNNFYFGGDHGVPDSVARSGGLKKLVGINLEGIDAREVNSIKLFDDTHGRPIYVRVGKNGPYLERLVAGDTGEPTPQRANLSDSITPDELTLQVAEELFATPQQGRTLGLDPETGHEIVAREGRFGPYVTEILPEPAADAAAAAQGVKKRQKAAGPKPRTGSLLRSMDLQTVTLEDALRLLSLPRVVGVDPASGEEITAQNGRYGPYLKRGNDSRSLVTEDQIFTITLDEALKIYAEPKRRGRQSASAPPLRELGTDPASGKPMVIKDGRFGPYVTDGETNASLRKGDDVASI

[5] = target: T2, mammalian enzyme (ribonucleotide reductase) (Homo sapiens, UniProt P23921); settings: cited from earlier work
T2 sequence (P23921 1-792): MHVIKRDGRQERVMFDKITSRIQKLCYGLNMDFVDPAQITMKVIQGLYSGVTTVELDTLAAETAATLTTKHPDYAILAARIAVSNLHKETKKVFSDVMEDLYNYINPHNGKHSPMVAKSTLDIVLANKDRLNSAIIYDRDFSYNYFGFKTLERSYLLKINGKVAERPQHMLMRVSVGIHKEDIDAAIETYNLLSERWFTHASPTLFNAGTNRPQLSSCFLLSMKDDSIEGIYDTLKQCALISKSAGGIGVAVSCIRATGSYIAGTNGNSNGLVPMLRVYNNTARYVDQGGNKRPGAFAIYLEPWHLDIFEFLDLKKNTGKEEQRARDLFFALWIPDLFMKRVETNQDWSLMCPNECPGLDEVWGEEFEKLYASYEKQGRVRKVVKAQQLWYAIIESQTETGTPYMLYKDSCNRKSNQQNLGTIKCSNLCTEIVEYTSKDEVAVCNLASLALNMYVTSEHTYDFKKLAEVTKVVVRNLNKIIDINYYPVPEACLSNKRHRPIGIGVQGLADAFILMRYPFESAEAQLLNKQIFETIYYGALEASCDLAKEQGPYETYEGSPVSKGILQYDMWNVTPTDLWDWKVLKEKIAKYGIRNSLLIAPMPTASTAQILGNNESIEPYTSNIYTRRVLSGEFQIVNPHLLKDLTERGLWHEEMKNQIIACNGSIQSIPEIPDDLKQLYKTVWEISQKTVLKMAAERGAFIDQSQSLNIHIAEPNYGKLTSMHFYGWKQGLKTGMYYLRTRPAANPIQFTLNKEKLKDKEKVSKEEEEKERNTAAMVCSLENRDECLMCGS

[6] = target: nrdA/nrdB ribonucleotide reductase (Escherichia coli, UniProt P00452); settings: negative effector at higher concentrations; cited from earlier work
nrdA/nrdB ribonucleotide reductase, sequence (P69924 2-376): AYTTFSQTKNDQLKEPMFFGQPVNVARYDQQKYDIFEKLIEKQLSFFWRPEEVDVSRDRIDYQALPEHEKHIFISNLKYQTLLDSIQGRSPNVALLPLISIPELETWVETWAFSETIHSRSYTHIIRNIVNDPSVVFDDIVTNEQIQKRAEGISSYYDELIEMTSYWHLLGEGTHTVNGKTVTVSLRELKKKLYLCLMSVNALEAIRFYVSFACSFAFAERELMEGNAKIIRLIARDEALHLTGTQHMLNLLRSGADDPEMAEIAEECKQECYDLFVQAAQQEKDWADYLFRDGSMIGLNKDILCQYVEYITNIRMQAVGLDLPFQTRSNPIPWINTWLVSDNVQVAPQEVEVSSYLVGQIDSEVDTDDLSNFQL
nrdA/nrdB ribonucleotide reductase, sequence (P00452 whole entry): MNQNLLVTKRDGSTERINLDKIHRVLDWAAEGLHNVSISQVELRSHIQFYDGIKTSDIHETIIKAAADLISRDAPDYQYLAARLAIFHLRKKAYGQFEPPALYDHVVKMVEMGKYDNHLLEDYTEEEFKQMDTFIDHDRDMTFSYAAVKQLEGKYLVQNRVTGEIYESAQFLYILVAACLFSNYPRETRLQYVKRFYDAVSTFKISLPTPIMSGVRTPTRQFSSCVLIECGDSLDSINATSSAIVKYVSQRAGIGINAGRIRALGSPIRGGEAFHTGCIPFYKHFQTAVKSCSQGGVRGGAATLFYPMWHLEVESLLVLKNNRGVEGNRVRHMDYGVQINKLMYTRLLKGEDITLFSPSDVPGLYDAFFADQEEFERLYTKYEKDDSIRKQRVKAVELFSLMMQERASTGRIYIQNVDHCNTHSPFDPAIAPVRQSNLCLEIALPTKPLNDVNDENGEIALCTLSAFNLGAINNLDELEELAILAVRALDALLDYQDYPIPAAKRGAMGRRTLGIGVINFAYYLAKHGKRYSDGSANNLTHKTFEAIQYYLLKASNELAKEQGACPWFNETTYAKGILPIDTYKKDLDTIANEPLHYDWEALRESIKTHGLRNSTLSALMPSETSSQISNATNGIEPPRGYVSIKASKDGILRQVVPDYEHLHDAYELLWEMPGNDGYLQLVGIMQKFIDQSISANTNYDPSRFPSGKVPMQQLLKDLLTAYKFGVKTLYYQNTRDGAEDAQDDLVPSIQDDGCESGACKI

[7] = target: T3, nrdE/nrdF ribonucleotide reductase (Salmonella typhimurium, UniProt Q08698); settings: cited from earlier work
T3 construct: host or cells: recombinant expression plasmid system (as reported)

M. smegmatis = settings: 200 μg/ml hydroxyurea; cited from earlier work
[8] = target: T4, calf thymus ribonucleotide reductase (Bos taurus, UniProt E1BI58); settings: cited from earlier work
T4 construct: slightly higher than that found for calf thymus; host or cells: calf thymus
T4 sequence (E1BI58 entry or part of it): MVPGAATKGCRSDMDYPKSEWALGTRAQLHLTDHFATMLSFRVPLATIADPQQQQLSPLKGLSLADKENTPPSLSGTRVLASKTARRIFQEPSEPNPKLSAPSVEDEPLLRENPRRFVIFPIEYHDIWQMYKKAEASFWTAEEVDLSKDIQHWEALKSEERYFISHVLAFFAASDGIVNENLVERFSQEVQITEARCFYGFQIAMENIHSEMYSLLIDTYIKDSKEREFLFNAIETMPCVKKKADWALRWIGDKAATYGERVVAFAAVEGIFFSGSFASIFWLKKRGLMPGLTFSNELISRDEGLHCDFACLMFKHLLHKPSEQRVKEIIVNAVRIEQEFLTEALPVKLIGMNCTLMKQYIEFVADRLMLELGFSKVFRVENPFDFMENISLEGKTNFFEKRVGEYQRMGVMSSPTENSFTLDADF

[9] = target: Salmonella ribonucleotide reductase (Salmonella typhimurium, UniProt P17424); settings: cited from earlier work
Salmonella ribonucleotide reductase, sequence (P17424 whole entry): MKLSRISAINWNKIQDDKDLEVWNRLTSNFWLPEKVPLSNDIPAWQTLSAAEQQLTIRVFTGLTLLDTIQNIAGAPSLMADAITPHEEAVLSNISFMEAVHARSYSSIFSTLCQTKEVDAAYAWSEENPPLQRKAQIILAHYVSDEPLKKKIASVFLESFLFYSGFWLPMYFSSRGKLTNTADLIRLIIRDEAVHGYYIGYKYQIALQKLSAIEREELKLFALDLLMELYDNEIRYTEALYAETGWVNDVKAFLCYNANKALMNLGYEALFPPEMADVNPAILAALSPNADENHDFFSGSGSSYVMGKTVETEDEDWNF

[10] = 5 mg reconstituted RR (1:1 R1 to R2-2), 6 mM CDP, 2 mM ATP, 0.0-0.5 mM inhibitor, read-out: IC50, inhibition of CDP reduction activity by C-terminal R2 peptides

M. tuberculosis ribonucleotide reductase R1, sequence (P9WH75 3-725 limits assumed): as the sequence (P9WH75 3-725) above

## Nc1ncnc2c1ncn2[C@@H]1O[C@H](COP(=O)(O)OP(=O)(O)OP(=O)(O)O)[C@@H](O)[C@H]1O [ATP]
[1]
  Labeling of the 84,000 Da band by [alpha-32P]dATP: completely inhibited
[2]
  Effect of nucleotide effector on ribonucleotide reductase activity of native enzyme: stimulated
[3]
  Concentration above which the effector inhibited the activity: higher than 2 mM
  Optimum concentration of activator for CDP reduction: 1 to 2 mM
  Maximal stimulated ribonucleotide reduction (Example 2): up to 45 pmoles deoxyribonucleotide in 20 min
  Maximal stimulated CDP reduction: up to 45 pmoles dCDP in 20 min
[4]; 0.4-1.6 mM ATP
  Effect of ATP on DNA relaxing activity: inhibited the reaction

## Nc1ncnc2c1ncn2[C@H]1C[C@H](O)[C@@H](COP(=O)(O)OP(=O)(O)OP(=O)(O)O)O1 [dATP]
[5]
  dATP concentration above which inhibition is seen in the mammalian system: greater than 0.1 mM
[2]
  Effect of nucleotide effector on ribonucleotide reductase activity of native enzyme: inhibited
[6]
  Concentration up to which dATP activates, nrdA/nrdB system: up to 1 uM
[7]
  Concentration up to which dATP is a positive allosteric activator, nrdE/nrdF system: up to 1 mM
[3]
  Maximal stimulated ribonucleotide reduction (Example 2): ≤ 13 pmoles deoxyribonucleotide in 20 min
  Maximal stimulated CDP reduction: ≤ 13 pmoles dCDP in 20 min
[3]; inhibition at higher concentrations
  Highest concentration at which the effector still stimulated reduction: ≤ 1 mM

## NC(=O)NO [hydroxyurea]
M. smegmatis
  Growth of M. smegmatis: completely inhibited
[8]
  IC90: 1000 µM
[3]; read-out: IC50, inhibition of the activity of CDP reduction by hydroxyurea
  IC50: 2000 µM
[9]
  IC50: ~500 µM

## NCCCCNCCCN [spermidine]
[4]; 4.0 mM spermidine
  DNA relaxing activity in the presence of spermidine: almost completely inhibited

## Ac-EDDDWDF-OH [R2P7-2, Acetyl-EDDDWDF-OH]
[3]; [10]
  IC50: 15 to 20 µM

## Ac-TDTDWDF-OH [R2P7-1, Acetyl-TDTDWDF-OH]
[3]; [10]
  IC50: 100 µM
